# Measurements taken from US11203600B2 (Denali Therapeutics Inc., priority 2017, dated 2021).
# Target: GST-hRIPK1 (8-327) (Homo sapiens (Human), UniProt Q13546)
# Assay: Fluorescent Polarization Binding (FP Binding) assay, RIPK1
# Settings: 10 nM GST-hRIPK1 (8-327), 5 nM fluorescent-labeled ligand, RT, 30 min, mean of at least two independent experiments
# Procedure, shortened: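 Binding by fluorescence polarisation at RT: 10 nM baculovirus-expressed GST-hRIPK1 (8-327) and 5 nM fluorescent ligand, 30 min, in 50 mM HEPES pH 7.5, 50 mM MgCl2, 0.02% CHAPS, 1% DMSO. FP read at ex 531/em 595 nm. IC50 from normalised percent inhibition, mean of ≥2 experiments.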
# Chain of GST-hRIPK1 (8-327) (Q13546 8-327): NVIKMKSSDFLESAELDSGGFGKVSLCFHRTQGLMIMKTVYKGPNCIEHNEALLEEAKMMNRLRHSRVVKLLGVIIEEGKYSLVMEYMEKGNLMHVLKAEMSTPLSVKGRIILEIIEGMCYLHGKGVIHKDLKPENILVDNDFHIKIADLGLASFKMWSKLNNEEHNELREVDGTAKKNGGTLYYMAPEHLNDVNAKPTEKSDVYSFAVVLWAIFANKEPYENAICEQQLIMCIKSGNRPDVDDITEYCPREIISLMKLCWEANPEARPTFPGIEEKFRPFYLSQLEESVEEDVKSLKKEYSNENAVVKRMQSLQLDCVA
row,Compound,IC50 [nM]
1,"CC(C)(CC#N)C(=O)N1CCOc2c(C#N)cncc2C1 [Example 31, 4-(3-cyano-2,2-dimethyl-propanoyl)-3,5-dihydro-2H-pyrido[3,4-f][1,4]oxazepine-9-carbonitrile]",100 to 1000
2,"CC(CF)(CF)C(=O)N1CCOc2c(C#N)cncc2C1 [Example 147, 4-[3-fluoro-2-(fluoromethyl)-2-methyl-propanoyl]-3,5-dihydro-2H-pyrido[3,4-f][1,4]oxazepine-9-carbonitrile]",0.1 to 100
3,"CC(C)(C(=O)N1CCOc2c(Cl)cncc2C1)C(F)F [Example 61, 1-(9-chloro-3,5-dihydro-2H-pyrido[3,4-f][1,4]oxazepin-4-yl)-3,3-difluoro-2,2-dimethyl-propan-1-one]",100 to 1000
4,"COc1nc(N2CCC(F)(C(=O)N3CCOc4c(C#N)cncc4C3)CC2)nc(C)c1F [Example 196, 4-[4-fluoro-1-(5-fluoro-4-methoxy-6-methyl-pyrimidin-2-yl)piperidine-4-carbonyl]-3,5-dihydro-2H-pyrido[3,4-f][1,4]oxazepine-9-carbonitrile]",100 to 1000
5,"COc1nc(N2CCC(F)(C(=O)N3CCOc4c(C#N)cncc4C3)CC2)ncc1F [Example 191, 4-[4-fluoro-1-(5-fluoro-4-methoxy-pyrimidin-2-yl)piperidine-4-carbonyl]-3,5-dihydro-2H-pyrido[3,4-f][1,4]oxazepine-9-carbonitrile]",0.1 to 100
6,"N#Cc1cncc2c1OCCN(C(=O)C1(F)CCN(c3cnc(F)c(F)c3)CC1)C2 [Example 193, 4-[1-(5,6-difluoro-3-pyridyl)-4-fluoro-piperidine-4-carbonyl]-3,5-dihydro-2H-pyrido[3,4-f][1,4]oxazepine-9-carbonitrile]",> 1000
7,"CC(C)(C)C(=O)N1CCCc2ccccc2C1 [Example 3, 2,2-dimethyl-1-(1,3,4,5-tetrahydro-2-benzazepin-2-yl)propan-1-one]",100 to 1000
8,"CC(CC(F)(F)F)C(=O)N1CCOc2c(C#N)cncc2C1 (stereo not drawn) [Example 141, 4-(4,4,4-trifluoro-2-methyl-butanoyl)-3,5-dihydro-2H-pyrido[3,4-f][1,4]oxazepine-9-carbonitrile]",100 to 1000
9,COC1(C(=O)N2CCOc3c(F)cncc3C2)CCN(c2ncc(F)c(OCCN(C)C)n2)CC1 [Example 136],> 1000
10,"COc1nc(N2CCC(C(=O)N3CCOc4c(C#N)cncc4C3)CC2)ncc1F [Example 118, 4-[1-(5-fluoro-4-methoxy-pyrimidin-2-yl)piperidine-4-carbonyl]-3,5-dihydro-2H-pyrido[3,4-f][1,4]oxazepine-9-carbonitrile]",0.1 to 100
11,"N#Cc1cncc2c1OCCN(C(=O)C1(F)CCN(c3ccc4nccn4n3)CC1)C2 [Example 109, 4-(4-fluoro-1-imidazo[1,2-b]pyridazin-6-yl-piperidine-4-carbonyl)-3,5-dihydro-2H-pyrido[3,4-f][1,4]oxazepine-9-carbonitrile]",100 to 1000
12,COC1(C(=O)N2CCOc3c(F)cncc3C2)CCN(c2ncc(F)cn2)CC1 [Example 121],0.1 to 100
13,"CC(C)(C(=O)N1CCOc2c(F)cccc2C1)C1CC1 [Example 15, 2-cyclopropyl-1-(9-fluoro-3,5-dihydro-2H-1,4-benzoxazepin-4-yl)-2-methyl-propan-1-one]",0.1 to 100
14,"CC(C(=O)N1CCOc2c(C#N)cncc2C1)(C(F)F)C1CC1 (stereo not drawn) [Example 56, 4-(2-cyclopropyl-3,3-difluoro-2-methyl-propanoyl)-3,5-dihydro-2H-pyrido[3,4-f][1,4]oxazepine-9-carbonitrile]",0.1 to 100
15,"CCC1(C(=O)N2CCOc3c(C#N)cncc3C2)CC1 [Example 63, 4-(1-ethylcyclopropanecarbonyl)-3,5-dihydro-2H-pyrido[3,4-f][1,4]oxazepine-9-carbonitrile]",100 to 1000
16,"CC(C)(C(=O)N1CCOc2c(C#N)cncc2C1)C(F)(F)F [Example 45, 4-(3,3,3-trifluoro-2,2-dimethyl-propanoyl)-3,5-dihydro-2H-pyrido[3,4-f][1,4]oxazepine-9-carbonitrile]",0.1 to 100
17,"CC1CC(C(=O)N2CCOc3c(C#N)cncc3C2)CCN1c1ncc(F)cn1 (stereo not drawn) [Example 91, 4-[1-(5-fluoropyrimidin-2-yl)-2-methyl-piperidine-4-carbonyl]-3,5-dihydro-2H-pyrido[3,4-f][1,4]oxazepine-9-carbonitrile]",100 to 1000
18,"CC(C)(C(=O)N1Cc2ccccc2CCO1)C(F)F [Example 38, 3,3-difluoro-2,2-dimethyl-1-(1,2,4,5-tetrahydro-3,2-benzoxazepin-2-yl)propan-1-one]",> 1000
19,"N#Cc1cncc2c1OCCN(C(=O)C1CCCN(c3ncc(F)cn3)CC1)C2 (stereo not drawn) [Example 92, 4-[1-(5-fluoropyrimidin-2-yl)azepane-4-carbonyl]-3,5-dihydro-2H-pyrido[3,4-f][1,4]oxazepine-9-carbonitrile]",100 to 1000

# Same assay, conditions: GST-hRIPK1 (8-327), mean of at least two independent experiments
row,Compound,IC50 [nM]
1,"O=C(C1CCN(c2ncnc(OCC(F)F)n2)CC1)N1CCOc2c(F)cncc2C1 [Example 210, [1-[4-(2,2-difluoroethoxy)-1,3,5-triazin-2-yl]-4-piperidyl]-(9-fluoro-3,5-dihydro-2H-pyrido[3,4-f][1,4]oxazepin-4-yl)methanone]",100 to 1000
2,"N#Cc1cncc2c1OCCN(C(=O)C1CCN(c3ncc(F)cn3)CC1(F)F)C2 (single isomer, unassigned) [Example 308, 4-[3,3-Difluoro-1-(5-fluoropyrimidin-2-yl)piperidine-4-carbonyl]-3,5-dihydro-2H-pyrido[3,4-f][1,4]oxazepine-9-carbonitrile]",0.1 to 100
3,"N#Cc1cncc2c1OCCN(C(=O)C1CCN(c3ncc(F)cn3)CC1(F)F)C2 (single isomer, unassigned) [Example 307, 4-[3,3-Difluoro-1-(5-fluoropyrimidin-2-yl)piperidine-4-carbonyl]-3,5-dihydro-2H-pyrido[3,4-f][1,4]oxazepine-9-carbonitrile]",100 to 1000
4,"N#Cc1cncc2c1OCCN(C(=O)C1CCN(c3ncnn4ccnc34)CC1(F)F)C2 (stereo not drawn) [Example 218, 4-(3,3-difluoro-1-imidazo[2,1-f][1,2,41triazin-4-yl-piperidine-4-carbonyl)-3,5-dihydro-2H-pyrido[3,4-f][1,4]oxazepine-9-carbonitrile)]",100 to 1000
5,"CC1(C(=O)N2CCOc3c(C#N)cncc3C2)CCN(c2ncc(Cl)cn2)CC1(F)F (stereo not drawn) [Example 215, 4-(1-(5-chloropyrimidin-2-yl)-3,3-difluoro-4-methylpiperidine-4-carbonyl)-2,3,4,5-tetrahydropyrido[3,4-f][1,4]oxazepine-9-carbonitrile]",0.1 to 100
6,"N#Cc1cncc2c1OCCN(C(=O)C1CCN(c3nccn4ncnc34)CC1F)C2 (single isomer, unassigned) [Example 301, 4-[3-Fluoro-1-([1,2,4]triazolo[1,5-a]pyrazin-8-yl)piperidine-4-carbonyl]-3,5-dihydro-2H-pyrido[3,4-f][1,4]oxazepine-9-carbonitrile]",100 to 1000
7,"COC1(C(=O)N2CCOc3c(C#N)cncc3C2)CCN(c2ncccn2)CC1 [Example 239, 4-(4-methoxy-1-pyrimidin-2-yl-piperidine-4-carbonyl)-3,5-dihydro-2H-pyrido[3,4-f][1,4]oxazepine-9-carbonitrile]",0.1 to 100
8,"CC(C)(C(=O)N1CCOc2c(C#N)cncc2C1)[C@H]1C[C@H](Cn2ccnn2)C1 [Example 292, trans-4-[2-methyl-2-[3-(triazol-1-ylmethyl)cyclobutyl]propanoyl]-3,5-dihydro-2H-pyrido [3,4-f][1,4]oxazepine-9-carbonitrile]",> 1000
